In patent EP1452605A1, “Method for determining antiviral activity” (Universiteit Utrecht Holding B.V., priority 2003, dated 2004):

Experiments:
[1] = test system: 41+215Y; assay: Drug susceptibility assay (cell-killing MTT assay) in MT-2 cells; settings: AZT-resistant strain 41+215Y, 5 days
Description: (§2) The cells were maintained at 37°C, 5% CO2. One day prior to the experiments, the cells were passaged 1:1 in a concentration of 1 × 10^6 cells/ml.
(§3) The genes that contain the drug resistance mutations are excised from the clinical isolates and cloned into the genetic background of HXB2. Thus all tested HIV-1 strains have the same genetic background. […] This strain contains an insertion of two a.a. between codons 68 and 69 of RT as well as an a.a. change at codon 67.
(§4) After 5 days of incubation a cellular viability assay was performed as described above. In this case, the amount of formazan reflects the number of cells protected by the drug against killing by the virus and is used as a read out for drug susceptibility.

[2] = test system: HIV-1Ba-L; assay: HIV-1 infection of monocyte-derived macrophages (MDM), p24-core antigen ELISA; type: cell-based; settings: Human immunodeficiency virus 1, Macrophage, 168 h; MDM infected with HIV-1Ba-L, p24 antigen after 7 days
Description: (§1) To correct for the input virus, an extra control consisting of medium containing the same amount of input virus as added to the cells was included in the experiment. The amount of p24 in this control was subsequently subtracted from the p24 values of the samples in order to obtain the exact amount of p24 produced by the cells. p24-core antigen quantification by ELISA After 2 or 7 days incubation, samples of the supernatants were collected, inactivated by addition of Empigen (Calbiochem, La Jolla, CA, USA) and by heat inactivation at 56°C for 30 min. p24-core antigen concentration was determined by an enzyme linked immunoabsorbent assay (ELISA) (AMPAK™, DAKO, Cambridgeshire, UK) as described previously ^18,19. The optical density values were converted into p24 concentration (ng/ml) with the use of a calibration curve made by serial dilutions of recombinant p24 protein (NIBSC, UK) that was submitted to the same treatment as the samples.

[3] = test system: RSV serotype A; assay: RSV infection of HEp-2 cells, FACS with FITC anti-RSV antibody; type: cell-based, Respiratory syncytium virus (RSV); settings: HEp-2 cells, 4, 5 and 6 days, all APHS concentrations tested
Description: RSV infection of the HEp-2 cell line was performed as described elsewhere (Hament J-M et al., submitted for publication). Briefly, HEp-2 cells were recovered from the culture flasks by trypsinization. Concentrations of HEp-2 cells were determined by microscopic observation in order to have a confluent monolayer at the day of measurement. HEp-2 cells were incubated with APHS and infected with different dilutions of RSV in order to have a good infection at the day of measurement. […] The cells were washed with PBS^2+ (PBS containing 0.15 mM Ca^2+ and 0.5 mM Mg^2+) and incubated with murine-anti-RSV monoclonal antibody conjugated to fluorescein isothiocyanate (FITC) (DAKO, Cambridgeshire, UK) for 15 minutes at 37 °C. Afterwards, cells were washed and resuspended in PBS^2+. Percentage of fluorescent cells was analyzed by FACSCalibur flow cytometer (Becton Dickinson, CA, USA) with computer assisted evaluation data (CellQuest Pro).

[4] = test system: HIV-1HXB2; assay: HIV-1 infection of PBL, p24-core antigen ELISA; type: cell-based; settings: Human immunodeficiency virus 1, 168 h; PBL infected with HIV-1HXB2, p24 antigen after 7 days
Description: as §1

[5] = test system: CrFK cells; assay: Cellular viability assay (MTT) of CrFK cells; type: cell-based, feline
[6] = test system: 3096; assay: Drug susceptibility assay (cell-killing MTT assay) in MT-2 cells; settings: Human immunodeficiency virus 1, MT2, 120 h
Description: as §2, §3, §4

[7] = test system: PBMC; assay: Cellular viability assay (MTT) of PBMC; settings: PBMC viability, 7 days
[8] = test system: HIV-1HXB2; assay: Reverse transcription assay in PBMC: (-) strong stop and gag DNA by real-time Taqman PCR; type: cell-based; settings: 10h after infection
Description: PBMC infection with HIV-1Ba-L or HIV-1HXB2 for real-time Taqman PCR The ability of HIV-1Ba-L to enter the cells in the presence of APHS was tested using DS as positive control (entry assay). The amount of HIV-1HXB2 reverse transcription products in the presence of APHS was also tested, using AZT as positive control (reverse transcription assay). Before infection, PHA-stimulated PBMC from the PBMC batch were pre-incubated with different concentrations of APHS, DS or AZT for 24 h. Afterwards, cells were washed and 1 × 10^6 PBMC were incubated for 40 min with HIV-1Ba-L or HIV-1HXB2 at an M.O.I. of 0.0025 and with appropriate concentrations of APHS, AZT, DS or medium in the presence of 1/20 concentrated M buffer (Roche) and 4U/ml DNase (Roche) to digest possible contaminating viral DNA associated with the virions. Afterwards PBMC were washed and resuspended in medium with or without compounds. Cells were treated with 1 mg/ml Pronase (Roche) to remove virus particles bound to the cells. […] At different time points, 1.0 × 10^6 cells were added to 900 µl Nuclisens lysis buffer (Organon Teknika, Boxtel, The Netherlands) containing 40 µl silica to bind total nucleic acids (Nuclisens isolation kit). For the entry assay, samples were collected 2h after the start of the infection and for the reverse transcription assays samples were collected 2, 7 and 10h after the start of the infection.
HIV RNA and DNA were extracted from samples of infected cells according to a method described before ^23. Briefly, after 10 min of mixing the silica and lysis buffer, tubes were shortly centrifuged at 13,000 rpm and supernatant was discarded. Free non-nucleic acid components were removed by washing the silica particles twice with Nuclisens washing buffer, twice with 70 % ethanol and once with acetone. The silica pellet was dried for 10 min at 56 °C. Total nucleic acids were eluted by resuspending the pellet in 100 µl nuclease-free water. After mixing the tubes for 10 min at 56 °C, tubes were shortly centrifuged and the supernatant was transferred to a new tube and stored at -20 °C.
Real-time Taqman PCR is based on cleavage of a probe, hybridized to the target sequence by 5'-3' nuclease activity of Taq DNA polymerase during amplification, as described previously ^24. Briefly, target sequence-specific forward and reverse primers prime the amplification reaction. The probe contains a reporter dye at the 5' end and a quencher dye at the 3' end. When both dyes are attached to the probe, reporter dye emission is quenched. The probe is displaced from the target during each polymeration cycle. Once separated from the quencher, the reporter dye emits its characteristic fluorescence, which can then be measured. The amount of fluorescence measured is proportional to the amount of PCR product.
HIV-1 gag cDNA and HIV-1 (-) strong stop and gag DNA were amplified and quantified by real-time Taqman PCR as described elsewhere ^25. Sets of primers/probes were designed according to a previous study by Zack and colleagues ^26. To quantify the amount of gag RNA in the samples, a cDNA standard curve was prepared from five-fold dilutions of extracted RNA from an HXB2 viral batch, of which the RNA amount was previously determined. To quantify (-) strong stop and gag DNA in the samples, a DNA standard curve was prepared from five-fold dilutions of DNA extracted from U1 cells, which contain two copies of the HIV-1HXB2 genome per cell. Albumin was also quantified and used for normalization of all samples.

[9] = test system: several HIV-1 strains (macrophage-tropic and/or lymphocytotropic); assay: HIV-1 replication in primary cells (summary over strains and cell types); type: cell-based; settings: Human immunodeficiency virus 1, read-out: 50% inhibitory concentration values
Description: as §1

## CCCCC#CCSc1ccccc1OC(C)=O [APHS, o-(acetoxyphenyl)hept-2-ynyl sulfide]
[1]
  IC50: 2.1 ± 1 µM
[1]; Human immunodeficiency virus 1, MT2, 120 h
  IC50: 2 µM
[2]
  IC50: 12 µM
[3]
  inhibition of RSV replication: no inhibition of RSV replication
[4]
  IC50: 12 µM
[5]
  cytotoxicity for CrFK cells: not cytotoxic
[6]
  IC50: 4 µM
[7]
  cytotoxic at concentrations above: above 30 µM
[8]; 10 µM APHS
  gag cDNA levels versus untreated PBMC: no significant differences
[8]; 10 or 30 µM APHS, 5 or 1000 nM AZT
  (-) strong stop DNA copy numbers versus untreated PBMC: did not show a significant decrease
[8]; Human immunodeficiency virus 1, 30 µM APHS, PBMC, read-out: inhibited gag production
  inhibition at 30 µM: 60%
[9]
  IC50: ~10 µM
